In publication PMC3182149 (Phytochemistry letters, 2011):

Legend:
NF-κB p65 = NF-κB p65 (Homo sapiens, UniProt Q04206); assay: Enzyme-based ELISA NF-κB p65 assay; format: biochemical; conditions: inhibition of binding of NF-κB to DNA; Hela nuclear extract
[1] = test system: MCF-7 human breast cancer cells; assay: Cytotoxicity assay, MCF-7 human breast cancer cell line; format: cell-based
[2] = test system: panel of three human cancer cells; assay: Cytotoxicity assay, panel of three human cancer cells; format: cell-based; conditions: range over the panel of three human cancer cells
[3] = test system: Lu1 human lung cancer cells; assay: Cytotoxicity assay, Lu1 human lung cancer cells; format: cell-based
[4] = test system: LNCaP hormone-dependent prostate cancer cells; assay: Cytotoxicity assay, LNCaP hormone-dependent prostate cancer cells; format: cell-based, human

Sequence of NF-κB p65 (Q04206 whole entry): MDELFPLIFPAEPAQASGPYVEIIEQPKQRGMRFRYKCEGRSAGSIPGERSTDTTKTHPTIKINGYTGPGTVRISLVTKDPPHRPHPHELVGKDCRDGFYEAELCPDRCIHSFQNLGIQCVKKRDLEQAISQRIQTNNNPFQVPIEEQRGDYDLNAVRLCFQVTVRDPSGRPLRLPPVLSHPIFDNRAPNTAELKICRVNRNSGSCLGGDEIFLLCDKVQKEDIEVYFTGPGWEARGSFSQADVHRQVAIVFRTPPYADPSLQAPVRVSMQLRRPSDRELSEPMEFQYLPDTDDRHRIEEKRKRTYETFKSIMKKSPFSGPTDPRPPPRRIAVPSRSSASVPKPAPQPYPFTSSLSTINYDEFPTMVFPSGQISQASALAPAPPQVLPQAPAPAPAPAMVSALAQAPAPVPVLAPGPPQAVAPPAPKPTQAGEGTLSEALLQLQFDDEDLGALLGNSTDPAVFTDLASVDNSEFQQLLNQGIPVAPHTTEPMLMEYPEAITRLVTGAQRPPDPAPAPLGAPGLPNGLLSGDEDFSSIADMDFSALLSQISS
Sequence of NF-κB p65 (P19838 1-433 partner limits assumed): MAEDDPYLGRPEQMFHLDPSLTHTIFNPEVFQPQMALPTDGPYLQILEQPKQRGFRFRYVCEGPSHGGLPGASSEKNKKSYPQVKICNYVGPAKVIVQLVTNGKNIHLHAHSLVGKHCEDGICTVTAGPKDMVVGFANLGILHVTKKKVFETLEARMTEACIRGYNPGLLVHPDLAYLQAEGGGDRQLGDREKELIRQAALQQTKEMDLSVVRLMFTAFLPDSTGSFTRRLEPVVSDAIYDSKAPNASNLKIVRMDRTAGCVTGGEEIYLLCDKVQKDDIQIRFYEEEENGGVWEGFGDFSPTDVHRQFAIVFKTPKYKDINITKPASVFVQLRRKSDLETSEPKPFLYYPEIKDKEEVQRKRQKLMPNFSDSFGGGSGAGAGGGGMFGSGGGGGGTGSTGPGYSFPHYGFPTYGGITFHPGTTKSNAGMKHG

Molecule	ED50 (NF-κB p65)	ED50 [1]	ED50 values [2]	ED50 [3]	ED50 [4]
methyl 3,4,5-O-tricaffeoyl quinate [Compound 4]	10.3 µM	–	–	–	–
COc1ccc([C@@H]2CC(=O)c3c(O)cc(OC)cc3O2)cc1 [Compound 3, (S)-5-hydroxy-7,4′-dimethoxyflavanone]	–	1.1 µM	1.1 to 6.7 µM	4.7 µM	6.7 µM
